# Assays:
# [1] = system: rat corneal epithelial wound; assay: Corneal Wound Healing Assay (2); type: in vivo, SD rats; details: topical 3 and 6 mg/ml every 6 hour; observed at 0 and 18 hours
# Method: (§1) SD rats (male, 8 weeks, 250 g) were used. Animal study protocol was in accordance with the Association for Research in Vision and Ophthalmology Statement for the Use of Animals in Ophthalmic and Visual Research. All animals were housed in individual cages and maintained under standard conditions (12 hour light-dark cycle).
# (§2) Rats were anesthetized by Zoletil® (50 mg/kg, Tiletamina 25 mg, Zolazepam 25 mg; Vibrac, Carros, France) and Rompun® (10 mg/kg, Bayer, France). The cornea was anesthetized by topical 0.5% proparacaine (Alcaine®; Alcon, Fort Worth, Tex., USA). After applying 0.5% proparacaine drops, 5.0 mm Trephine Blade® (Katena, Denville, N.J., USA) was placed and fixed firmly on the corneal surface. One drop of 20% ethanol were put into the tephine well and left in place for 30 seconds, then absorbed with a dry cellulose sponge (Merocel®; Medtronic Solan, Jacksonville, Fla., USA) and irrigated with normal saline. And the epithelium was removed in 6.0 mm diameter.
# The drugs were each topically applied in 3 mg/ml (0.3%) and 6 mg/ml (0.6%) concentrations (in 5% DMSO, 10% PEG (Mw 400) and 85% saline (0.9% NaCl)) in every 6 hour, respectively.
# (§3) The corneal wounds were captured by digital camera under cobalt blue light and the defect area was analyzed by Image J software (Ver 4.1, NIH). The significance between Vehicle and each group was analyzed by paired T-test, and the significance of the test was analyzed by One Way ANOVA analysis.
# [2] = system: rat corneal epithelial wound; assay: Corneal Wound Healing Assay (1); type: in vivo, SD rats; details: topical 10 mg/ml (1%) every 6 hour; observed at 0 and 18 hours
# Method: as §1
# as §2, with “2. Corneal Epithelium Removal Rats” for “Rats”
# The drugs were each topically applied in 10 mg/ml (1%) concentration (in 5% DMSO, 10% PEG (Mw 400) and 85% saline (0.9% NaCl)) in every 6 hour.
# as §3
# corneal angiogenesis [3] = assay: Inhibitory effects against corneal angiogenesis, subconjunctival injection and eye drop-administration; type: in vivo, Sprague Dawley rats; details: subconjunctival injection 20 μl plus eye drop 50 μl; KR 0.3 mg/ml, Avastin 10 mg/ml
# Method: The tests were performed by using Sprague Dawley rats (8 weeks old, male) as animals having corneal damage (15 rats for the experiment group; and 1 rat for normal group, respectively). The corneal damage was induced by applying a cotton swab coated with silver nitrate to the surface of the rat corneas, as as to induce a damage having a diameter of 2 mm in the central cornea. On the third day after inducing the corneal damages, we confirmed the establishment of corneal angiogenesis-inducing models and then subconjunctivally injected a solution (20 μl) prepared by dissolving the compound of Preparation Example 23, i.e., (2R,3R,4S)-6-amino-4-[N-(4-chlorophenyl)-N-(1H-imidazol-2-ylmethyl)amino]-3-hydroxy-2-methyl-2-dimethoxymethyl-3,4-dihydro-2H-1-benzopyran (KR-31831) in phosphate buffered saline (PBS) containing 10% PEG 400, in the concentration of 0.3 mg/ml. […] The evaluations quantifying the photographs of FIG. 1 were performed by using the Image J (NIH, USA) program and the results thereof were shown in FIG. 2.
# Except for performing both the subconjunctival injection and the eye drop-administration of (2R,3R,4S)-6-amino-4-[N-(4-chlorophenyl)-N-(1H-imidazol-2-ylmethyl)amino]-3-hydroxy-2-methyl-2-dimethoxymethyl-3,4-dihydro-2H-1-benzopyran and Avastin, the inhibitory effects against angiogenesis were evaluated according to the same manners as in Example 1. […]
# corneal angiogenesis [4] = assay: Inhibitory effects against corneal angiogenesis in animal models having corneal damage (subconjunctival injection); type: in vivo, Sprague Dawley rats; details: subconjunctival injection 20 μl; KR 0.3 mg/ml, Avastin 10 mg/ml; 1 week after administration
# Method: The tests were performed by using Sprague Dawley rats (8 weeks old, male) as animals having corneal damage (15 rats for the experiment group; and 1 rat for normal group, respectively). The corneal damage was induced by applying a cotton swab coated with silver nitrate to the surface of the rat corneas, as as to induce a damage having a diameter of 2 mm in the central cornea. On the third day after inducing the corneal damages, we confirmed the establishment of corneal angiogenesis-inducing models and then subconjunctivally injected a solution (20 μl) prepared by dissolving the compound of Preparation Example 23, i.e., (2R,3R,4S)-6-amino-4-[N-(4-chlorophenyl)-N-(1H-imidazol-2-ylmethyl)amino]-3-hydroxy-2-methyl-2-dimethoxymethyl-3,4-dihydro-2H-1-benzopyran (KR-31831) in phosphate buffered saline (PBS) containing 10% PEG 400, in the concentration of 0.3 mg/ml. In case of the control group, the PBS (20 μl) containing 10% PEG 400 was subconjunctivally injected. As a positive control, a solution (20 μl) prepared by dissolving Avastin (used as an angiogenesis inhibitor) in PBS in the concentration of 10 mg/ml was subconjunctivally injected. The evaluations quantifying the photographs of FIG. 1 were performed by using the Image J (NIH, USA) program and the results thereof were shown in FIG. 2.
# retinal angiogenesis = assay: Laser-induced retinal damage model, retinal angiogenesis by dextran-FITC fluorescence; type: in vivo, Brown Norway rats; details: Avastin 2.5 mg/ml, 10 μl into the vitreous humor; 2 weeks after administration
# Method: The tests were performed by using Brown Norway rats (8 weeks old, male) as animals having retinal damage (15 rats for the experiment group; and 1 rat for normal group, respectively). The retinal Bruch's membrane of each Brown Norway rat was damaged using a Zeiss 532s laser at the intensity of […], 30 ms. On the third day after the laser-damaging, the drug was administered into the vitreous humor in order to observe the retinal vessels. The compound of the present invention, i.e., (2R,3R,4S)-6-amino-4-[N-(4-chlorophenyl)-N-(1H-imidazol-2-ylmethyl)amino]-3-hydroxy-2-methyl-2-dimethoxymethyl-3,4-dihydro-2H-1-benzopyran was administered with the solutions (10 μl of each solution) obtained by dissolving in PBS containing 30% PEG 400 and 10% DMSO, in the concentrations of 0.1 mg/ml and 0.3 mg/ml. Avastin was administered with the solution (10 μl) obtained by dissolving in PBS in the concentration of 2.5 mg/ml. In case of the control group, the PBS (10 μl) was administered. In addition, (2R,3R,4S)-6-amino-4-[N-(4-chlorophenyl)-N-(1H-imidazol-2-ylmethyl)amino]-3-hydroxy-2-methyl-2-dimethoxymethyl-3,4-dihydro-2H-1-benzopyran was intraperitoneally administered with the solution obtained by dissolving in PBS containing 30% PEG 400 and 10% DMSO, in the dose of 25 mg/kg. 2 weeks after the drug administrations, dextran-FITC was injected into the left ventricle in the dose of 25 mg/kg, followed by enucleating the eye after 5 minutes therefrom; and then fixing in a 10% formalin solution. The cornea and the eye lens were removed from the fixed eye, which was then observed under a fluorescence microscope. Angiogenesis was identified by the intensity and leakage of dextran-FITC in the laser-induced damage site; and the results thereof were shown in FIG. 7. The evaluations quantifying the photographs of FIG. 7 were performed by using the Image J (NIH, USA) program and the results thereof were shown in FIG. 8.
# VEGF receptor 2 (FLK-1) = assay: Expression of VEGF receptor 2 (FLK-1) in corneal tissue by RT-PCR; type: in vivo, rats; details: subconjunctival injection 20 μl; KR 0.3 mg/ml, Avastin 10 mg/ml
# Method: The tests were performed for confirming corneal angiogenesis as a marker. To a Trizole™ solution (200 μl), were added each corneal tissue obtained from the rats of Example 1. Total RNAs were isolated and then cDNAs were prepared by using a reverse transcriptase. Each cDNA (5 μl) was mixed with the primer set of FLK-1 and then PCR amplication was performed in a thermocycler under the following conditions; denaturation at 94° C. for 5 minutes, and then 35 cycles of denaturation at 94° C. for 20 seconds, annealing at 58° C. for 1 minute, and extension at 72° C. for 25 seconds. Each PCR product was loaded on 1% agarose gel; and the resulting ethidium bromide fluorescent bands were identified.
molecule,measurement,setting,value
CNC1(C)C2CCC(C2)C1(C)C (stereo not shown) [ATG-003],inhibitory effect on normal healing of rat corneal epithelial wound,[1],showed inhibitory effect
same,inhibitory effect on normal healing of rat corneal epithelial wound,[2],showed inhibitory effect
same,rate (%) of wound healing compared to vehicle control and KR-31831 (rank),[2],the second lowest rate (%) of wound healing
Cc1ccc(Nc2nccc(N(C)c3ccc4c(C)n(C)nc4c3)n2)cc1S(N)(=O)=O [Pazopanib],inhibitory effect on normal healing of rat corneal epithelial wound,[1],showed inhibitory effect
same,inhibitory effect on normal healing of rat corneal epithelial wound,[2],showed inhibitory effect
same,rate (%) of wound healing compared to vehicle control and KR-31831 (rank),[2],the least lowest rate (%) of wound healing among the three but lower than the control
Cc1cc(-c2cc(OC(=O)c3ccccc3)ccc2Cl)cc2nnc(Nc3ccc(OCCN4CCCC4)cc3)nc12 [TG100801],inhibitory effect on normal healing of rat corneal epithelial wound,[1],showed inhibitory effect
same,inhibitory effect on normal healing of rat corneal epithelial wound,[2],showed inhibitory effect
same,rate (%) of wound healing compared to vehicle control and KR-31831 (rank),[2],the lowest rate (%) of wound healing
"Avastin: protein drug used in anti-VEGF antibody injection therapy; used as an angiogenesis inhibitor, positive control",angiogenesis in comparison with the angiogenesis (100%) of the control group,corneal angiogenesis [3],29.3±8.6%
same,corneal angiogenesis in comparison with the corneal angiogenesis (100%) of the control group,corneal angiogenesis [4],66.4±10.6%
same,fluorescence intensity at laser-induced damage site (surrounding vessels = 100),retinal angiogenesis,46±3
same,FLK-1 expression in the cornea (control group 100%),VEGF receptor 2 (FLK-1),about 59%
